Reference: PubChem BioAssay AID296 (DTP/NCI, 2004)
“And” between values parts separate entries of the source, which are not always exact repeats. Identical values can stand only once. Inconclusive results are not listed.

System: MX-1 breast xenograft, nude mice, tumor weight T/C
Assay: NCI In Vivo Anticancer Drug Screen. Data for tumor model Human Mammary Carcinoma MX-1 Xenograft (intrarenal inoculation) in NU/NU Swiss (nude) mice
Conditions: endpoint: mean tumor weight change, higher = larger tumour
Procedure, shortened: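 Read-out: treated (T) over vehicle control (C) ratio of survival or tumor size. Dosing in animals carrying the transplanted tumor.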

[1] = dose: 150.0 mg/kg/injection, schedule: Q04DX003 (sc), vehicle: saline with Tween-80
[2] = dose: 300.0 mg/kg/injection, schedule: Q04DX003 (sc), vehicle: saline with Tween-80
[3] = dose: 600.0 mg/kg/injection, schedule: Q04DX003 (sc), vehicle: saline with Tween-80

CC1=C(/C=C/C(C)=C/C=C/C(C)=C/C=O)C(C)(C)CCC1
T/C [1]: 88 % of control | T/C [2]: 98 % of control | T/C (dose: 1200.0 mg/kg/injection, schedule: Q04DX003 (sc), vehicle: saline with Tween-80): 53 % of control

CCOC(=O)Nc1cc2c(c(N)n1)N=C(c1ccc(Cl)cc1Cl)CN2
T/C (dose: 37.5 mg/kg/injection, schedule: Q04DX003 (sc), vehicle: saline with Tween-80): 79 % of control | T/C (dose: 75.0 mg/kg/injection, schedule: Q04DX003 (sc), vehicle: saline with Tween-80): 94 % of control | T/C [1]: 103 % of control and 117 % of control | T/C [2]: 81 % of control and 84 % of control

O=C1CN(Cc2ccc3c(c2)OCO3)NO1
T/C [1]: 64 % of control | T/C [2]: 42 % of control | T/C [3]: 39 % of control

COc1ccc2[nH]c3ccc4cc[n+](CCN5CCC(C6CCN(CC[n+]7ccc8ccc9[nH]c%10ccc(OC)cc%10c9c8c7)CC6)CC5)cc4c3c2c1
T/C (dose: 200.0 mg/kg/injection, schedule: Q04DX003 (sc), vehicle: Klucel (hydroxypropylcellulose) (HPC)): 108 % of control | T/C (dose: 400.0 mg/kg/injection, schedule: Q04DX003 (sc), vehicle: Klucel (hydroxypropylcellulose) (HPC)): 80 % of control | T/C (dose: 800.0 mg/kg/injection, schedule: Q04DX003 (sc), vehicle: Klucel (hydroxypropylcellulose) (HPC)): 99 % of control | T/C (dose: 1600.0 mg/kg/injection, schedule: Q04DX003 (sc), vehicle: Klucel (hydroxypropylcellulose) (HPC)): 80 % of control

CC(C)(C[NH-])C[NH-].[Cl][Pt+2][Cl]
T/C (dose: 1.5 mg/kg/injection, schedule: Q04DX003 (ip), vehicle: other): 117 % of control | T/C (dose: 1.5 mg/kg/injection, schedule: Q04DX003 (ip), vehicle: water): 4 % of control | T/C (dose: 3.0 mg/kg/injection, schedule: Q04DX003 (ip), vehicle: other): 112 % of control | T/C (dose: 3.0 mg/kg/injection, schedule: Q04DX003 (ip), vehicle: water): -58 % of control | T/C (dose: 6.0 mg/kg/injection, schedule: Q04DX003 (ip), vehicle: water): -84 % of control

COC(=O)C(N)Cc1ccc(O)c(O)c1 (configuration not stated)
T/C (dose: 300.0 mg/kg/injection, schedule: Q04DX003 (sc), vehicle: saline): 106 % of control | T/C (dose: 600.0 mg/kg/injection, schedule: Q04DX003 (sc), vehicle: saline): 101 % of control | T/C (dose: 1200.0 mg/kg/injection, schedule: Q04DX003 (sc), vehicle: saline): 105 % of control

COc1nc(=O)n(C2C=CC(=O)O2)cc1F (configuration not stated)
T/C (dose: 75.0 mg/kg/injection, schedule: Q04DX003 (sc), vehicle: Klucel (hydroxypropylcellulose) (HPC)): 116 % of control

CN(C)N=Nc1ccc(C(=O)O)cc1
T/C (dose: 100.0 mg/kg/injection, schedule: Q04DX003 (ip), vehicle: saline): 55 % of control | T/C (dose: 200.0 mg/kg/injection, schedule: Q04DX003 (ip), vehicle: saline): 16 % of control | T/C (dose: 400.0 mg/kg/injection, schedule: Q04DX003 (ip), vehicle: saline): -31 % of control

N#CC(=C1C=CC(=NO)C=C1)c1ccc(Cl)cc1
T/C [1]: 89 % of control | T/C [2]: 122 % of control | T/C [3]: 156 % of control

CC[C@@]1(O)C(=O)OCc2c1cc1n(c2=O)Cc2cc3cc(O)ccc3nc2-1
T/C (dose: 8.0 mg/kg/injection, schedule: Q04DX003 (sc), vehicle: saline): -98 % of control | T/C (dose: 16.0 mg/kg/injection, schedule: Q04DX003 (sc), vehicle: saline): -100 % of control | T/C (dose: 32.0 mg/kg/injection, schedule: Q04DX003 (sc), vehicle: saline): -100 % of control | T/C (dose: 32.0 mg/kg/injection, schedule: Q04DX003 (sc), vehicle: suspension in saline): -100 % of control | T/C (dose: 64.0 mg/kg/injection, schedule: Q04DX003 (sc), vehicle: saline): -100 % of control | T/C (dose: 64.0 mg/kg/injection, schedule: Q04DX003 (sc), vehicle: suspension in saline): -100 % of control | T/C (dose: 128.0 mg/kg/injection, schedule: Q04DX003 (sc), vehicle: suspension in saline): -100 % of control

C[PH+](C)C.C[PH+](C)C.[Au]
T/C (dose: 5.0 mg/kg/injection, schedule: Q04DX003 (sc), vehicle: suspension in saline): 157 % of control | T/C (dose: 10.0 mg/kg/injection, schedule: Q04DX003 (sc), vehicle: suspension in saline): 156 % of control | T/C (dose: 20.0 mg/kg/injection, schedule: Q04DX003 (sc), vehicle: suspension in saline): 160 % of control

O=C1c2cccc3cc([N+](=O)[O-])cc(c23)C(=O)N1CCN1CCCC1
T/C (dose: 18.0 mg/kg/injection, schedule: Q04DX003 (sc), vehicle: saline with Tween-80): 120 % of control | T/C (dose: 36.0 mg/kg/injection, schedule: Q04DX003 (sc), vehicle: saline with Tween-80): 96 % of control | T/C (dose: 72.0 mg/kg/injection, schedule: Q04DX003 (sc), vehicle: saline with Tween-80): 85 % of control
